Holding throughout (format): cell-based
One assay has as its system Botrytis cinerea. Set-up: key to Plate antimicrobial activity test Botrytis cinerea, level: a case where hyphae extended to the entire well and no antimicrobial activity was found is defined as “level 0,”; a case where hyphae extended to less than a half of the well and thus the peptide inhibited the growth of the hyphae is defined as “level 1,”; a case where ungerminated spores were present and the peptide partially inhibited the germination is defined as “level 2,”; a case where all spores were ungerminated and the peptide completely inhibited the germination is defined as “level 3.”. The settings on record: 25° C. for 1 day or 2 days, microscopic observation.

Assay [1] relates to Colletotrichum destructivum. Set-up: key to Plate antimicrobial activity test Colletotrichum destructivum, level: a case where hyphae extended to the entire well and no antimicrobial activity was found is defined as “level 0,”; a case where hyphae extended to less than a half of the well and thus the peptide inhibited the growth of the hyphae is defined as “level 1,”; a case where ungerminated spores were present and the peptide partially inhibited the germination is defined as “level 2,”; a case where all spores were ungerminated and the peptide completely inhibited the germination is defined as “level 3.”. The settings on record: 25° C. for 1 day or 2 days, microscopic observation.

A further assay has as its system Fusarium oxysporum. Also noted: key to Plate antimicrobial activity test Fusarium oxysporum, level: a case where hyphae extended to the entire well and no antimicrobial activity was found is defined as “level 0,”; a case where hyphae extended to less than a half of the well and thus the peptide inhibited the growth of the hyphae is defined as “level 1,”; a case where ungerminated spores were present and the peptide partially inhibited the germination is defined as “level 2,”; a case where all spores were ungerminated and the peptide completely inhibited the germination is defined as “level 3.”.

Assay [2] deals with Colletotrichum orbiculare. Also noted: key to Plate antimicrobial activity test Colletotrichum orbiculare, level: a case where hyphae extended to the entire well and no antimicrobial activity was found is defined as “level 0,”; a case where hyphae extended to less than a half of the well and thus the peptide inhibited the growth of the hyphae is defined as “level 1,”; a case where ungerminated spores were present and the peptide partially inhibited the germination is defined as “level 2,”; a case where all spores were ungerminated and the peptide completely inhibited the germination is defined as “level 3.”. The settings on record: 25° C. for 1 day or 2 days, microscopic observation.

For the next assay, the system named is Pyricularia oryzae. Also noted: key to Plate antimicrobial activity test Pyricularia oryzae, level: a case where hyphae extended to the entire well and no antimicrobial activity was found is defined as “level 0,”; a case where hyphae extended to less than a half of the well and thus the peptide inhibited the growth of the hyphae is defined as “level 1,”; a case where ungerminated spores were present and the peptide partially inhibited the germination is defined as “level 2,”; a case where all spores were ungerminated and the peptide completely inhibited the germination is defined as “level 3.”. The settings on record: 25° C. for 1 day or 2 days, microscopic observation.

“And” between values parts separate entries of the source, which are not always exact repeats. Equal values may be shown once. Read-outs that look alike come from different tables or passages of the source.

On to “VVKTK (listed as Solanum lycopersicum) [TsORF6-1-5aa-6, partial peptide of TsORF6-1, 5 amino acid residues]”, for which the “Plate antimicrobial activity test Botrytis cinerea, level” value with Botrytis cinerea (peptide 1 μM), with Botrytis cinerea (peptide 10 μM) and in the assay with Botrytis cinerea (peptide 100 μM) was 0 throughout. Further, the “Plate antimicrobial activity test Colletotrichum destructivum, level” value in assay [1] (peptide 1 μM), in assay [1] (peptide 10 μM) and in assay [1] (peptide 100 μM) was 0 in each case. For the same substance, the “Plate antimicrobial activity test Fusarium oxysporum, level” value in the assay on Fusarium oxysporum worked out at 0. Moreover, the “Plate antimicrobial activity test Colletotrichum orbiculare, level” value in assay [2] (peptide 1 μM), in assay [2] (peptide 10 μM) and in assay [2] (peptide 100 μM) was 0 in each case. For the same substance, the “Plate antimicrobial activity test Pyricularia oryzae, level” value in the assay with Pyricularia oryzae (peptide 1 μM), in the assay on Pyricularia oryzae (peptide 10 μM) and with Pyricularia oryzae (peptide 100 μM) was 0 in each case.

For the substance “VKTKV (listed as Solanum lycopersicum) [TsORF6-1-5aa-7, partial peptide of TsORF6-1, 5 amino acid residues]”, the “Plate antimicrobial activity test Botrytis cinerea, level” value in the assay on Botrytis cinerea (peptide 1 μM), with Botrytis cinerea (peptide 10 μM) and with Botrytis cinerea (peptide 100 μM) was 0 each time. Further, the “Plate antimicrobial activity test Colletotrichum destructivum, level” value in assay [1] (peptide 1 μM), in assay [1] (peptide 10 μM) and in assay [1] (peptide 100 μM) was 0 each time. Further, the “Plate antimicrobial activity test Fusarium oxysporum, level” value with Fusarium oxysporum is listed as 0. For the same substance, the “Plate antimicrobial activity test Colletotrichum orbiculare, level” value in assay [2] (peptide 1 μM), in assay [2] (peptide 10 μM) and in assay [2] (peptide 100 μM) was 0 each time. For the same substance, the “Plate antimicrobial activity test Pyricularia oryzae, level” value in the assay with Pyricularia oryzae (peptide 1 μM), in the assay on Pyricularia oryzae (peptide 10 μM) and in the assay on Pyricularia oryzae (peptide 100 μM) was 0 in each case.

Take “VKNKK (listed as Solanum lycopersicum) [TsORF6-1-5aa-11, partial peptide of TsORF6-1, 5 amino acid residues]”: the “Plate antimicrobial activity test Botrytis cinerea, level” value in the assay with Botrytis cinerea (peptide 1 μM), in the assay with Botrytis cinerea (peptide 10 μM) and in the assay with Botrytis cinerea (peptide 100 μM) was 0 throughout. For the same substance, the “Plate antimicrobial activity test Colletotrichum destructivum, level” value in assay [1] (peptide 1 μM), in assay [1] (peptide 10 μM) and in assay [1] (peptide 100 μM) was 0 in each case. Besides, the “Plate antimicrobial activity test Fusarium oxysporum, level” value with Fusarium oxysporum is on record as 0. Moreover, the “Plate antimicrobial activity test Colletotrichum orbiculare, level” value in assay [2] (peptide 1 μM), in assay [2] (peptide 10 μM) and in assay [2] (peptide 100 μM) was 0 throughout. The “Plate antimicrobial activity test Pyricularia oryzae, level” value in the assay with Pyricularia oryzae (peptide 1 μM), with Pyricularia oryzae (peptide 10 μM) and in the assay on Pyricularia oryzae (peptide 100 μM) was 0 in each case.

“KKVAKMMV (listed as Solanum lycopersicum) [TsORF6-1-8aa-14, partial peptide of TsORF6-1, 8 amino acid residues]”: the “Plate antimicrobial activity test Botrytis cinerea, level” value with Botrytis cinerea (peptide 1 μM), in the assay with Botrytis cinerea (peptide 10 μM) and in the assay with Botrytis cinerea (peptide 100 μM) was 0 each time. Further, the “Plate antimicrobial activity test Colletotrichum destructivum, level” value in assay [1] (peptide 1 μM), in assay [1] (peptide 10 μM) and in assay [1] (peptide 100 μM) was 0 each time. The “Plate antimicrobial activity test Fusarium oxysporum, level” value with Fusarium oxysporum stood at 0. The “Plate antimicrobial activity test Colletotrichum orbiculare, level” value in assay [2] (peptide 1 μM), in assay [2] (peptide 10 μM) and in assay [2] (peptide 100 μM) was 0 each time. For the same substance, the “Plate antimicrobial activity test Pyricularia oryzae, level” value in the assay on Pyricularia oryzae (peptide 1 μM), in the assay on Pyricularia oryzae (peptide 10 μM) and with Pyricularia oryzae (peptide 100 μM) was 0 in each case.

Take “IVVKTKVK (listed as Solanum lycopersicum) [TsORF6-1-8aa-5, partial peptide of TsORF6-1, 8 amino acid residues]”: the “Plate antimicrobial activity test Botrytis cinerea, level” value in the assay with Botrytis cinerea (peptide 1 μM), with Botrytis cinerea (peptide 10 μM) and in the assay with Botrytis cinerea (peptide 100 μM) was 0 in each case. Also, the “Plate antimicrobial activity test Colletotrichum destructivum, level” value in assay [1] (peptide 1 μM), in assay [1] (peptide 10 μM) and in assay [1] (peptide 100 μM) was 0 each time. The “Plate antimicrobial activity test Fusarium oxysporum, level” value with Fusarium oxysporum came to 0. In addition, the “Plate antimicrobial activity test Colletotrichum orbiculare, level” value in assay [2] (peptide 1 μM), in assay [2] (peptide 10 μM) and in assay [2] (peptide 100 μM) was 0 each time. Also, the “Plate antimicrobial activity test Pyricularia oryzae, level” value in the assay with Pyricularia oryzae (peptide 1 μM), with Pyricularia oryzae (peptide 10 μM) and in the assay on Pyricularia oryzae (peptide 100 μM) was 0 each time.

For “KMMVKEDEKNKRVITMKEELMV (listed as Solanum lycopersicum) [TsORF6-2, chemically synthesized region of TsORF6]”, the “Plate antimicrobial activity test Botrytis cinerea, level” value in the assay with Botrytis cinerea (peptide 1 μM) came out at 0; in the assay with Botrytis cinerea (peptide 10 μM), 0; with Botrytis cinerea (peptide 100 μM), 2. In addition, the “Plate antimicrobial activity test Colletotrichum destructivum, level” value in assay [1] (peptide 1 μM), in assay [1] (peptide 10 μM) and in assay [1] (peptide 100 μM) was 0 in each case. The “Plate antimicrobial activity test Fusarium oxysporum, level” value in the assay with Fusarium oxysporum is 1 and 0. Also, the “Plate antimicrobial activity test Colletotrichum orbiculare, level” value in assay [2] (peptide 1 μM), in assay [2] (peptide 10 μM) and in assay [2] (peptide 100 μM) was 0 in each case. Also, the “Plate antimicrobial activity test Pyricularia oryzae, level” value with Pyricularia oryzae (peptide 1 μM), in the assay on Pyricularia oryzae (peptide 10 μM) and in the assay with Pyricularia oryzae (peptide 100 μM) was 0 throughout.

As to “EELMVVAEEEAYRRVRGGMGW (listed as Solanum lycopersicum) [TsORF6-3, chemically synthesized region of TsORF6]”, the “Plate antimicrobial activity test Botrytis cinerea, level” value with Botrytis cinerea (peptide 1 μM), with Botrytis cinerea (peptide 10 μM) and with Botrytis cinerea (peptide 100 μM) was 0 in each case. Besides, the “Plate antimicrobial activity test Colletotrichum destructivum, level” value in assay [1] (peptide 1 μM), in assay [1] (peptide 10 μM) and in assay [1] (peptide 100 μM) was 0 each time. Besides, the “Plate antimicrobial activity test Fusarium oxysporum, level” value in the assay on Fusarium oxysporum is given as 0. For the same substance, the “Plate antimicrobial activity test Colletotrichum orbiculare, level” value in assay [2] (peptide 1 μM), in assay [2] (peptide 10 μM) and in assay [2] (peptide 100 μM) was 0 in each case. In addition, the “Plate antimicrobial activity test Pyricularia oryzae, level” value in the assay with Pyricularia oryzae (peptide 1 μM), in the assay on Pyricularia oryzae (peptide 10 μM) and with Pyricularia oryzae (peptide 100 μM) was 0 in each case.

Consider “KVAKMMVK (listed as Solanum lycopersicum) [TsORF6-1-8aa-15, partial peptide of TsORF6-1, 8 amino acid residues]”, for which the “Plate antimicrobial activity test Botrytis cinerea, level” value in the assay on Botrytis cinerea (peptide 1 μM), in the assay on Botrytis cinerea (peptide 10 μM) and in the assay with Botrytis cinerea (peptide 100 μM) was 0 throughout. Besides, the “Plate antimicrobial activity test Colletotrichum destructivum, level” value in assay [1] (peptide 1 μM), in assay [1] (peptide 10 μM) and in assay [1] (peptide 100 μM) was 0 throughout. Besides, the “Plate antimicrobial activity test Fusarium oxysporum, level” value with Fusarium oxysporum is given as 0. Further, the “Plate antimicrobial activity test Colletotrichum orbiculare, level” value in assay [2] (peptide 1 μM), in assay [2] (peptide 10 μM) and in assay [2] (peptide 100 μM) was 0 throughout. Further, the “Plate antimicrobial activity test Pyricularia oryzae, level” value in the assay with Pyricularia oryzae (peptide 1 μM), in the assay with Pyricularia oryzae (peptide 10 μM) and in the assay on Pyricularia oryzae (peptide 100 μM) was 0 in each case.
